# Laboratory results as given in publication PMC11624193, “Coupling cellular drug-target engagement to downstream pharmacology with CeTEAM” (Nature Communications, 2024).
# Numbering of substitutions follows the chain as printed.
# Tests used:
# NUDT15 [1] = target: T1, NUDT15 (Homo sapiens, UniProt Q9NV35); assay: […] Å co-crystal structure; also enzyme-coupled malachite green inhibition assay and DSF; type: biochemical
# T1 construct: full-length wild-type
# T1 sequence (Q9NV35 1-164): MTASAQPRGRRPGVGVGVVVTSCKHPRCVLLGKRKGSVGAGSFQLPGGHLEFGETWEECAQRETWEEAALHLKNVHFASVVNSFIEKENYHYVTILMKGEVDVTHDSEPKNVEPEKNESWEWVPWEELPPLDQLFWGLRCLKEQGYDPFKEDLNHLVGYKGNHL
# NUDT15 [2] = target: T2, NUDT15 (Homo sapiens, UniProt Q9NV35, R139C); assay: DSF thermal shift of purified protein with […] compound; HA-R139C stabilization in cells; type: binding; conditions: read-out: DSF thermal shift of purified protein with 50 μM compound; HA-R139C stabilizatio
# T2 construct: full-length R139C
# T2 sequence (Q9NV35 1-164 R139C): T1 sequence (Q9NV35 1-164) with R139C
# NUDT15 [3] = target: T1, NUDT15; assay: enzyme-coupled malachite green assay with dGTP as substrate; type: biochemical
IC50 (NUDT15 [1]) [nM],ΔTm at 50 µM (NUDT15 [2]) [°C],IC50 (NUDT15 [3]) [nM],Structure (SMILES)
383,7,–,"Nc1nc(S)c2ncn(C3CCCCC3)c2n1 [NSC56456, 2-amino-9-cyclohexyl-3H-purine-6-thione]"
–,–,375,"CC(C)(c1ccccc1)n1cnc2c(=S)nc(N)[nH]c21 [TH8234, 2-amino-9-(2-phenylpropan-2-yl)-3H-purine-6(9H)-thione]"
